Measured values as given in ChEMBL document CHEMBL4020764, “Phytochemical and cytotoxic studies on the leaves of Calotropis gigantea” (Bioorg Med Chem Lett, 2017).
Active and inactive are the calls of the source. The calls are words filed in the database; no cut-off is given here.

Key:
PANC-1 [1] = assay: Cytotoxicity against human PANC1 cells after 72 hrs by WST8 assay; format: functional, cell-based; settings: PANC-1, 72 h
PANC-1 [2] = assay: Growth inhibition of human PANC1 cells after 72 hrs by WST8 assay; format: functional; settings: PANC-1, 72 h
PANC-1 [3] = assay: Cytotoxicity against human PANC1 cells at >25 uM measured after 72 hrs by WST8 assay; format: functional, cell-based
PANC-1 [4] = assay: Induction of morphological changes in human PANC1 cells assessed as cell rounding at 5 to 10 uM after 72 hrs by ethidium bromide/acridine orange staining based fluorescent microscopic analysis; format: functional
PANC-1 [5] = assay: Inhibition of colony formation in human PANC1 cells after 10 days by crystal violet staining based assay; format: functional, cell-based
PANC-1 [6] = assay: Induction of morphological changes in human PANC1 cells assessed as disruption of cellular organelles at 5 to 10 uM after 72 hrs by ethidium bromide/acridine orange staining based fluorescent microscopic analysis; format: functional, cell-based
PANC-1 [7] = assay: Induction of morphological changes in human PANC1 cells assessed as increase in EB positive cells at 5 to 10 uM after 72 hrs by ethidium bromide/acridine orange staining based fluorescent microscopic analysis; format: functional, cell-based

Row | Structure (SMILES) | IC50 (PANC-1 [1]) | also measured
1 | COc1cc([C@H]2OC[C@H]3[C@@H]2CO[C@@H]3c2ccc(O)c(OC)c2)ccc1O | 37.5 µM | 
2 | Cc1ncccc1O | > 100 µM | 
3 | Nc1ccn([C@@H]2O[C@H](CO)[C@@H](O)C2(F)F)c(=O)n1 [GEMCITABINE] |  | GI50 (PANC-1 [2]): 5.8 µM; Activity (PANC-1 [3]): Active
4 | CO[C@@H]1C[C@@H](OCc2ccc(C=O)o2)O[C@@H](C)[C@@H]1O | > 100 µM | 
5 | CC(=O)[C@H]1CC[C@H]2[C@@H]3C=CC4=CC(=O)CC[C@]4(C)[C@H]3CC[C@]12C | 40 µM | 
6 | COc1cc([C@H]2OC[C@H]3[C@@H]2CO[C@@H]3c2cc(OC)c(O)c(OC)c2)cc(OC)c1O [SYRINGARESINOL] | 61.1 µM | 
7 | COc1cc([C@H]2O[C@@H](OC)[C@H]3[C@@H]2CO[C@@H]3c2ccc(O)c(OC)c2)ccc1O | 3.7 µM | Activity (PANC-1 [4]): Active; inhibition (PANC-1 [5]): Dose-dependent effect; Activity (PANC-1 [6]): Active; Activity (PANC-1 [7]): Active
8 | O=C(/C=C/c1ccc(O)cc1)c1ccc(O)cc1O [ISOLIQUIRITIGENIN] | 3.3 µM | 
9 | CC(=O)[C@]1(O)CC[C@]2(O)[C@@H]3CC=C4C[C@@H](O)CC[C@]4(C)[C@H]3C[C@@H](OC(=O)c3ccccc3)[C@]12C | 18.7 µM | 
10 | CC(=O)[C@H]1CC[C@@]2(O)[C@@H]3C=CC4=CC(=O)CC[C@]4(C)[C@H]3CC[C@]12C | 79.3 µM | 
11 | CO[C@H]1C[C@@H](OCc2ccc(C=O)o2)O[C@@H]1[C@@H](C)O | > 100 µM | 
12 | COc1cc(C(=O)OC[C@H]2O[C@@H](Oc3ccc([C@H]4OC[C@H]5[C@@H]4CO[C@@H]5c4ccc(O)c(OC)c4)cc3OC)[C@H](O)[C@@H](O)[C@@H]2O)ccc1O | 63.4 µM | 
13 | O=Cc1ccc(CO)o1 [AES-103] | > 100 µM | 
